Data from ChEMBL document CHEMBL1667792, “DNA-dependent protein kinase (DNA-PK) inhibitors: structure-activity relationships for O-alkoxyphenylchromen-4-one probes of the ATP-binding domain” (Bioorg Med Chem Lett, 2011).

What was measured:
[1] = target: DNA-dependent protein kinase catalytic subunit (Homo sapiens, UniProt P78527)
[2] = target: Phosphatidylinositol 4,5-bisphosphate 3-kinase catalytic subunit alpha isoform (Homo sapiens, UniProt P42336); assay: Inhibition of PI3Kalpha after 80 mins
Chain of Phosphatidylinositol 4,5-bisphosphate 3-kinase catalytic subunit alpha isoform (P42336 whole entry, canonical isoform): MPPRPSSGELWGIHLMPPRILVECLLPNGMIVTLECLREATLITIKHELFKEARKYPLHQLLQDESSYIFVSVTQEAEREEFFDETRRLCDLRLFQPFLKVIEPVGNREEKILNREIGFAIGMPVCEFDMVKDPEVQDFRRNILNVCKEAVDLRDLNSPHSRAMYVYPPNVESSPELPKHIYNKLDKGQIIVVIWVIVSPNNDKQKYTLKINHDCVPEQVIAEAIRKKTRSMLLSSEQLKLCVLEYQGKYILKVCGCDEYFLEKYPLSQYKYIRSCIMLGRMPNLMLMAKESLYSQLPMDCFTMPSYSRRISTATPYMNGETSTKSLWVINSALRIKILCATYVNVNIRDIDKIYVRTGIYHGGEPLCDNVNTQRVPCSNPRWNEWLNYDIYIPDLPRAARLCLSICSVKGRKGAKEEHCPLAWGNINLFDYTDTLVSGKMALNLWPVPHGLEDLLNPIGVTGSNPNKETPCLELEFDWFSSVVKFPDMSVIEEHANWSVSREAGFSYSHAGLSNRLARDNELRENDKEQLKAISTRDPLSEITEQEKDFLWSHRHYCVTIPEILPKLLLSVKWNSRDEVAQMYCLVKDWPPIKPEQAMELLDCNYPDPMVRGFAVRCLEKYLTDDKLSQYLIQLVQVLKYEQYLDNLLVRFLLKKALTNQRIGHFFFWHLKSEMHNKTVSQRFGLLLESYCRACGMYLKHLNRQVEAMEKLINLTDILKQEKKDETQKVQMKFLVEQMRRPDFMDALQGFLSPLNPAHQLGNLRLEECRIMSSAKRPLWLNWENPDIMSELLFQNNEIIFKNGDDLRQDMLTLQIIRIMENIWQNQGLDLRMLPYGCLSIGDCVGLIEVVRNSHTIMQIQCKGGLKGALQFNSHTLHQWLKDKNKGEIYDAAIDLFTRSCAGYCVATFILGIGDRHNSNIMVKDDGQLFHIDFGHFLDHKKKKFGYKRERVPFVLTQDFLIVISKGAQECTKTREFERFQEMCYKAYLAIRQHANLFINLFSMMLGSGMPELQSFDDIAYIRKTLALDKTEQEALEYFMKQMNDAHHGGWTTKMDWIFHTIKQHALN

HeLa [3] = assay: Potentiation of ionising radiation-induced DNA damaging activity in human HeLa cells assessed as dose modification ratio at 0.5 uM treated 1 hr before ionising radiation challenge followed by washout measured after 6 to 8 days by Giemsa staining; assay type: functional
HeLa [4] = assay: Potentiation of ionising radiation-induced DNA damaging activity in human HeLa cells assessed as dose modification ratio at 0.1 uM treated 1 hr before ionising radiation challenge followed by washout measured after 6 to 8 days by Giemsa staining; assay type: functional

Chain of DNA-dependent protein kinase catalytic subunit (P78527 whole entry, canonical isoform): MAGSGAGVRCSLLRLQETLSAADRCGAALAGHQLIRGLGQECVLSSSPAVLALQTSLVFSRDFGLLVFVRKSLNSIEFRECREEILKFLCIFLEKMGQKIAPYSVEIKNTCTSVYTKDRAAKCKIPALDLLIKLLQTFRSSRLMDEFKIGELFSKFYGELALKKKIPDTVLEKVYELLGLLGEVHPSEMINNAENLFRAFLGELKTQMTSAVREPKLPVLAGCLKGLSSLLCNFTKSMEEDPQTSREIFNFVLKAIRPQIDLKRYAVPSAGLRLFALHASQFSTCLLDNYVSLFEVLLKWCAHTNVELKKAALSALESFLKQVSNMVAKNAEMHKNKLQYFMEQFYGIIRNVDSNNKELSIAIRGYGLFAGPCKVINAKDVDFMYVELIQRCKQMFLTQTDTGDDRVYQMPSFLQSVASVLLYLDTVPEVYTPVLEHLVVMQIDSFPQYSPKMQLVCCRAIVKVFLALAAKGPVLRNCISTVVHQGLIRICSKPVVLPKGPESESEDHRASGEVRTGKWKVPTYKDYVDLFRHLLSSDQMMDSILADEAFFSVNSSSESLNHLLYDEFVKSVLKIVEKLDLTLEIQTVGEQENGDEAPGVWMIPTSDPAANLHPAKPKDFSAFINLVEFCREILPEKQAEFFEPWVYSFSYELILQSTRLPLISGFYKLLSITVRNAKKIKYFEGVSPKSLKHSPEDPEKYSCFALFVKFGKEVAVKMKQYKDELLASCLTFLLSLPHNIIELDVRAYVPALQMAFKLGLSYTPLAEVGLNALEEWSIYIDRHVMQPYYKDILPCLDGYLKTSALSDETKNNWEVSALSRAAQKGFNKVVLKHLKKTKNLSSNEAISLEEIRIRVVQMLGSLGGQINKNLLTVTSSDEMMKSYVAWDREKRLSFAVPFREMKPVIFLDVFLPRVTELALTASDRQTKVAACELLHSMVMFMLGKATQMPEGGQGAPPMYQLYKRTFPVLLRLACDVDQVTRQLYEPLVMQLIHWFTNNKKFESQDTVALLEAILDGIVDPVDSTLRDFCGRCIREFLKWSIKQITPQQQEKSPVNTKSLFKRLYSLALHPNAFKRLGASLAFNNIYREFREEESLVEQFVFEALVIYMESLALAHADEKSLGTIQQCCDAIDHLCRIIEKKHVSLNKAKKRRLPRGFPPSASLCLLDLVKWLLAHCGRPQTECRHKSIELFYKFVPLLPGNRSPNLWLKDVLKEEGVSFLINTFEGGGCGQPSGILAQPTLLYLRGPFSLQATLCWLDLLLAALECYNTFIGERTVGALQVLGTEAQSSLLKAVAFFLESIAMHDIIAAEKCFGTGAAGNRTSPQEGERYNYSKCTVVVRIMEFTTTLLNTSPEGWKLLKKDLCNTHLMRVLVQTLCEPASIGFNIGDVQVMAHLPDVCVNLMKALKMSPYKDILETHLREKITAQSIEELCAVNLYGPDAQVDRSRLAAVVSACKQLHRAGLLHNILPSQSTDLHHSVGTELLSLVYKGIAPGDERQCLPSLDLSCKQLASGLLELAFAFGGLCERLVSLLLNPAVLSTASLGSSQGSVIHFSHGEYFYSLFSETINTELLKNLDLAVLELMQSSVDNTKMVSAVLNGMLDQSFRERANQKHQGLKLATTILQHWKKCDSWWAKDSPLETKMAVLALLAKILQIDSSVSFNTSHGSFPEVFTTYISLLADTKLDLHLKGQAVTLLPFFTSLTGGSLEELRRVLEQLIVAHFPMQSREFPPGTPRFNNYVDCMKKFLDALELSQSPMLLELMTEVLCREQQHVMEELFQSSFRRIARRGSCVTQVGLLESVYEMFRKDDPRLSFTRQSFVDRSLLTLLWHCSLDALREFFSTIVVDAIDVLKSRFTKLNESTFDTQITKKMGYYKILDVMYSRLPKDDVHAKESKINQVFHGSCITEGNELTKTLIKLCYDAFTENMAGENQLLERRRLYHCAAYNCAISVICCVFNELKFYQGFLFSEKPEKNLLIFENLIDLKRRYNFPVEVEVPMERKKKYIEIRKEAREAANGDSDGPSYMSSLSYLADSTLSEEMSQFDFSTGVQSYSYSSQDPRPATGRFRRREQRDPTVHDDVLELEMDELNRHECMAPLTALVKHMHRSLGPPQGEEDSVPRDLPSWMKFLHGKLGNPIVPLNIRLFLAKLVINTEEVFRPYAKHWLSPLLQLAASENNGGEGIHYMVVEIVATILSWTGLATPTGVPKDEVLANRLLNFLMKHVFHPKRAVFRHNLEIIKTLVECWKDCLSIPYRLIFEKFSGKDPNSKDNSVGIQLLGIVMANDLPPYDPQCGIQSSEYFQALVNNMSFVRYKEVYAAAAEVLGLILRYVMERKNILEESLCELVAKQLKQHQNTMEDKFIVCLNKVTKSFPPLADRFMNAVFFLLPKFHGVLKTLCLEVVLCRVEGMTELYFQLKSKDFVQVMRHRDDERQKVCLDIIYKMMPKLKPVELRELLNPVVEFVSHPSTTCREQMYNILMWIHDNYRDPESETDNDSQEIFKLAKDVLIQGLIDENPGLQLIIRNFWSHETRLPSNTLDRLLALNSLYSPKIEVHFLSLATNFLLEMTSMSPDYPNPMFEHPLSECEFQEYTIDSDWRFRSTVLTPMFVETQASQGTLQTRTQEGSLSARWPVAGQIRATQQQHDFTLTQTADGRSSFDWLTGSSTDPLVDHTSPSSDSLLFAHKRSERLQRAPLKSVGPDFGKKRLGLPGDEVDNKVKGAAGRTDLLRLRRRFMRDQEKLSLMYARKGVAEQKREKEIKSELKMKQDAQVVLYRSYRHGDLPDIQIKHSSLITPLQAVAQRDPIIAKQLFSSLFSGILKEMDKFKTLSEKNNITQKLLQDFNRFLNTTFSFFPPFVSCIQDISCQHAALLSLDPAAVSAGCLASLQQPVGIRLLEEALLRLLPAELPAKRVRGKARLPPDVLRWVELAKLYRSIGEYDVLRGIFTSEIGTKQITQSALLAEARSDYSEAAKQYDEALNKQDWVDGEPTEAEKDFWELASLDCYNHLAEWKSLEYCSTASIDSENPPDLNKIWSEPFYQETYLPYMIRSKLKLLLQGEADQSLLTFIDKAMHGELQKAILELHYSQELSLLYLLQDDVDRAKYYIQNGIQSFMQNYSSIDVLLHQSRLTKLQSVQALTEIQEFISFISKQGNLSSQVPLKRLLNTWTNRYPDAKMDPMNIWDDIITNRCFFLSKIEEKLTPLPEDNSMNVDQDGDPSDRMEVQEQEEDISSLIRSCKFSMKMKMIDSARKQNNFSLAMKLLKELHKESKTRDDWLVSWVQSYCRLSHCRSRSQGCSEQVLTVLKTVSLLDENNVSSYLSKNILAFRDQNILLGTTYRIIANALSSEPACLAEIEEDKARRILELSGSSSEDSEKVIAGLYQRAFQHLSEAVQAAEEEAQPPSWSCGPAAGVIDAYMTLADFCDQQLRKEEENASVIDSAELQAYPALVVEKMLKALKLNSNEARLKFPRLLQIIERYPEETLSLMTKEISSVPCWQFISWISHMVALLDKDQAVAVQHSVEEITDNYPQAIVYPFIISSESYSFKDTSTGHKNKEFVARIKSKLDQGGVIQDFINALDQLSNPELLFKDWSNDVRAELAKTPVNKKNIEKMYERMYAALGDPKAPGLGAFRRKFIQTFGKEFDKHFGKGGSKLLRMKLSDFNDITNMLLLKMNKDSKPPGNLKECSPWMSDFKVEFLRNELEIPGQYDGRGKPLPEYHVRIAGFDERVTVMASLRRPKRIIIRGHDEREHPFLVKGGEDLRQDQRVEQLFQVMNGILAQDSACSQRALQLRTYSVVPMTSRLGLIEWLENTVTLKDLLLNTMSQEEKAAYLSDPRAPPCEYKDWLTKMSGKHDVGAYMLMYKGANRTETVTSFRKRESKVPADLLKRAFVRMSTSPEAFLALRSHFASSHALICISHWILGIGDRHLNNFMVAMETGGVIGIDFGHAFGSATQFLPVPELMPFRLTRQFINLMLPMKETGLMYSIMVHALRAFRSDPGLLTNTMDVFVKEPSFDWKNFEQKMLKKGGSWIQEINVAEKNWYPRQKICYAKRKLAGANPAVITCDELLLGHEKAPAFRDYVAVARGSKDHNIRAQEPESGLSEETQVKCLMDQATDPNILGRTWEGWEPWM

| Compound | IC50 [1] | IC50 [2] | Ratio (HeLa [3]) | Ratio (HeLa [4]) |
| --- | --- | --- | --- | --- |
| C=CCOc1cc(-c2cccc3c(=O)cc(N4CCOCC4)oc23)ccc1NC(=O)CN1CCOCC1 | 170 nM | 150 nM | – | – |
| NC(=O)COc1cc(-c2cccc3c(=O)cc(N4CCOCC4)oc23)ccc1NC(=O)CN1CCOCC1 | 3300 nM | 1100 nM | – | – |
| O=C(CN1CCOCC1)Nc1ccc(-c2cccc3c(=O)cc(N4CCOCC4)oc23)cc1OCC1CC1 | 8 nM | 70 nM | – | – |
| O=C(CN1CCOCC1)Nc1ccc(-c2cccc3c(=O)cc(N4CCOCC4)oc23)cc1O | 80 nM | 430 nM | – | – |
| COCCOc1cc(-c2cccc3c(=O)cc(N4CCOCC4)oc23)ccc1NC(=O)CN1CCOCC1 | 2600 nM | 1500 nM | – | – |
| O=C(CN1CCOCC1)Nc1ccc(-c2cccc3c(=O)cc(N4CCOCC4)oc23)cc1-c1ccccc1 | 14 nM | – | 8 | 11 |
| NCCOc1cc(-c2cccc3c(=O)cc(N4CCOCC4)oc23)ccc1NC(=O)CN1CCOCC1 | 12000 nM | 3000 nM | – | – |
| O=C(CN1CCOCC1)Nc1ccc(-c2cccc3c(=O)cc(N4CCOCC4)oc23)cc1OCCO | 1000 nM | 1600 nM | – | – |
| CC(C)COc1cc(-c2cccc3c(=O)cc(N4CCOCC4)oc23)ccc1NC(=O)CN1CCOCC1 | 180 nM | 150 nM | – | – |
| CCOc1cc(-c2cccc3c(=O)cc(N4CCOCC4)oc23)ccc1NC(=O)CN1CCOCC1 | 280 nM | 470 nM | – | – |
| O=C(CN1CCOCC1)Nc1ccc(-c2cccc3c(=O)cc(N4CCOCC4)oc23)cc1OCCN1CCCC1 | > 10000 nM | 4400 nM | – | – |
| O=C(CN1CCOCC1)Nc1ccc(-c2cccc3c(=O)cc(N4CCOCC4)oc23)cc1OCC1CCC1 | 160 nM | 290 nM | – | – |
| O=c1cc(N2CCOCC2)oc2c(-c3cccc4c3sc3ccccc34)cccc12 | 28 nM | 130 nM | – | – |
| CC1(COc2cc(-c3cccc4c(=O)cc(N5CCOCC5)oc34)ccc2NC(=O)CN2CCOCC2)COC1 | 690 nM | 300 nM | – | – |
| COc1cc(-c2cccc3c(=O)cc(N4CCOCC4)oc23)ccc1NC(=O)CN1CCOCC1 | 290 nM | 350 nM | – | – |
| CC(C)Oc1cc(-c2cccc3c(=O)cc(N4CCOCC4)oc23)ccc1NC(=O)CN1CCOCC1 | 330 nM | 290 nM | – | – |
| CC1(COc2cc(-c3cccc4c(=O)cc(N5CCOCC5)oc34)ccc2NC(=O)CN2CCOCC2)CCC1 | 110 nM | 270 nM | – | – |
| O=C(CN1CCOCC1)Nc1ccc(-c2cccc3c(=O)cc(N4CCOCC4)oc23)cc1OCCC1CC1 | 500 nM | 400 nM | – | – |
| O=c1cc(N2CCOCC2)oc2c(-c3ccccc3)cccc12 [LY-294002] | 1300 nM | – | – | – |
